Experimental findings from patent publication US20240254093A1, “GPR35 Agonist Compounds” (Heptares Therapeutics Limited, priority 2021, published 2024) are described below.

The structures appear in SMILES notation.

A word on the Ki: it is the dissociation constant of the complex between target and ligand, obtained from inhibition or displacement. What is called EC50 is the concentration at which the effect is half-maximal. Read a low EC50 as higher potency in that assay.

In one test the target is Human GPR35a isoform (Homo sapiens (Human), UniProt Q9HC97). Kind of test: Human GPR35a isoform binding (radioligand, HEK293f membranes). Conditions: HEKf cell membranes overexpressing GPR35a isoform; read-out: Human GPR35 Ki. As to the method:
Overexpression of Human GPR35a Baculovirus in HEK293f cells at a cell density of 2.5×10^6 cells/mL and a multiplicity of infection of 2.5 over 24 h in Pro293 (Lonza)+5% FBS, 1% Glutamax and 0.4% Pen/Strep. Cells harvested and centrifuged at 2500 RPM for 10 mins at 4° C. The supernatant was then poured off and the pellet stored at −80° C. The pellet was defrosted and re-suspended in 15 mL of homogenising buffer (20 mM HEPES, 10 mM EDTA, pH 7.4). Then homogenised in mechanical homogeniser (VMR) for 10 seconds. The membrane was centrifuged in centrifuge tubes at 40,000 g for 15 mins at 4° C. The supernatant was poured away and re-suspended in 15 mL of homogenising buffer. Homogenised for 20 seconds. The membrane was centrifuged at 40,000 g for 45 mins at 4° C. The membrane was re-suspended in 3 mL of storage buffer (20 mM HEPES, 0.1 mM EDTA, pH 7.4) mixing well. The resulting membranes were then stored at −80°. GPR35 cell membrane homogenates were re-suspended in the binding buffer (50 mM TRIS+10 mM MgCl2 pH 7.4) to a final assay concentration of 5 ug/well. Test compounds were diluted in dimethylsulphoxide (DMSO (Sigma Aldrich, UK)), to form a 10 point ½ log concentration curve. Test compounds were added per plate, followed by 7 nM 3H-27966. 0.1 uM FAC Lodoxamide was added in order to allow non-specific binding to be calculated. Finally, membrane was added to each well on the plate. After 60 min incubation at room temperature, membranes were filtered onto a unifilter, 96-well white microplate with bonded GF/B filter, pre-soaked in ddH20, with a TomTec cell harvester, and washed 5 times with distilled water. Plates were dried prior to 50 ul/well scintillant added, sealed and radioactivity measured using a MicroBeta analyser. IC50 values were derived from the inhibition curve and affinity constant (Ki) values were calculated using the Cheng-Prussoff equation, where; pKi=−log 10 Ki.
(§1) • Ki values derived from concentration response analysis in HEKf cell membranes overexpressing GPR35a isoform. EC50 values derived from concentration response analysis in HT-29 cell line endogenously expressing human GPR35.

The target of the next test is GPR35 (Homo sapiens (Human), UniProt Q9HC97). The test can be described thus: Label-free DMR functional assay in HT-29 cells. The class given is cell-based. Conditions: HT-29 cell line endogenously expressing human GPR35; DMR normalised to Lodoxamide. The method, then:
HT-29 cells (ATCC HTB-38) kept in continuous culture in McCoys (Thermo 16600082) supplemented with 10% FBS. Day prior to assay, cells harvested with TrypLE (Gibco12604-013), and plated at 20 k/well in culture media in a total volume of 50 ul in Corning EPIC 384 well plates (5040) overnight 37° C. 5% CO2. On the day of assay, cell media was removed and replaced with assay buffer (HBSS+20 mM HEPES pH7.4) and reincubated for 1 h. Compounds were prepared in 100% DMSO in ECHO LDV 384 source plates. Cell plates were read on an EPIC plate reader at room temperature for 15 mins, read paused, and cell plate added to LabCyte ECHO 550 for addition of 50 nl per well compound by acoustic transfer. Plates were immediately placed back into the EPIC reader, read unpaused and Dynamic Mass Redistribution measured for 60 minutes. Raw data was analysed by EPIC Analyser software and max peak taken per concentration to enable EC50 determination. All raw DMR data was normalised to Lodoxamide and buffer corrected.
as §1

Chain of Human GPR35a isoform (Q9HC97 whole entry, canonical isoform): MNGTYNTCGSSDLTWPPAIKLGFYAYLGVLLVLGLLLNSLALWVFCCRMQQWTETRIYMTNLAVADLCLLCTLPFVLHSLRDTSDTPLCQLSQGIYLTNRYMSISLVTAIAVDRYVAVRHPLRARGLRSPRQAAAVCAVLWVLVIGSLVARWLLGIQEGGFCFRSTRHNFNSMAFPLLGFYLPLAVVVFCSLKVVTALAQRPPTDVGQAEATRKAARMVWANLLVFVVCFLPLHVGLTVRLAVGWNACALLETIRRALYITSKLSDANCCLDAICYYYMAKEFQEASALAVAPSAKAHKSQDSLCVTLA
Chain of GPR35 (Q9HC97 whole entry): as the sequence (Q9HC97 whole entry, canonical isoform) above

On to `O=c1c(O)c(Nc2cc(-c3nn[nH]n3)cc(C(F)(F)F)c2)c1=O` [Example 2, 3-((3-(1H-tetrazol-5-yl)-5-(trifluoromethyl)phenyl)amino)-4-hydroxycyclobut-3-ene-1,2-dione], for which the inhibition constant (Ki) on Human GPR35a isoform amounted to 0.48 nM. The molecule also gave an EC50 on GPR35 of 0.9 nM.
The corresponding values for `O=c1c(O)c(Nc2cc(-c3ccc(OCCOc4ccc(C(F)(F)F)cc4)nc3)cc(-c3nn[nH]n3)c2)c1=O` [Example 27, 3-((3-(1H-tetrazol-5-yl)-5-(6-(2-(4-(trifluoromethyl)phenoxy)ethoxy)pyridin-3-yl)phenyl)amino)-4-hydroxycyclobut-3-ene-1,2-dione] are 0.75 nM and 0.54 nM.
As for `O=c1c(O)c(Nc2cccc(-c3nn[nH]n3)c2)c1=O` [Example 1, 3-((3-(1H-tetrazol-5-yl)phenyl)amino)-4-hydroxycyclobut-3-ene-1,2-dione], at GPR35, it took 8.68 nM to reach a half-maximal effect (EC50).
In the case of `O=c1c(O)c(Nc2cc(-c3nn[nH]n3)cc(Oc3ccccc3)n2)c1=O` [Example 22, 3-hydroxy-4-((6-phenoxy-4-(1H-tetrazol-5-yl)pyridin-2-yl)amino)cyclobut-3-ene-1,2-dione], at Human GPR35a isoform, the Ki turned out to be 3.66 nM. In addition, the 50% effective concentration (EC50) at GPR35 was found to be 1.39 nM.
The corresponding values for `O=C(NCc1ccc(C(F)(F)F)cc1)c1ccc(-c2cc(Nc3c(O)c(=O)c3=O)cc(-c3nn[nH]n3)c2)cc1` [Example 12, 3′-((2-hydroxy-3,4-dioxocyclobut-1-en-1-yl)amino)-5′-(1H-tetrazol-5-yl)-N-(4-(trifluoromethyl)benzyl)-[1,1′-biphenyl]-4-carboxamide] are 0.31 nM and 0.03 nM.
For `NC(=O)c1ccc(CNC(=O)c2ccc(-c3cc(Nc4c(O)c(=O)c4=O)cc(-c4nn[nH]n4)c3)cc2)cc1` [Example 31, N-(4-carbamoylbenzyl)-3′-((2-hydroxy-3,4-dioxocyclobut-1-en-1-yl)amino)-5′-(1H-tetrazol-5-yl)-[1,1′-biphenyl]-4-carboxamide] the same measures were 1.61 nM and 11.3 nM.
For `O=c1c(O)c(Nc2cc(-c3ccc4cn(CCOc5ccc(C(F)(F)F)cc5)nc4c3)cc(-c3nnn[nH]3)c2)c1=O` [Example 23, 3-((3-(1H-tetrazol-5-yl)-5-(2-(2-(4-(trifluoromethyl)phenoxy)ethyl)-2H-indazol-6-yl)phenyl)amino)-4-hydroxycyclobut-3-ene-1,2-dione] the same measures were 0.46 nM and 0.12 nM.
With `O=c1c(O)c(Nc2cc(-c3ccc(OCc4ccccc4)nc3)cc(-c3nn[nH]n3)c2)c1=O` [Example 16, 3-((3-(6-(benzyloxy)pyridin-3-yl)-5-(1H-tetrazol-5-yl)phenyl)amino)-4-hydroxycyclobut-3-ene-1,2-dione], the Ki on Human GPR35a isoform worked out at 0.06 nM. For the same molecule, at GPR35, the concentration giving a half-maximal response (EC50) turned out to be 0.27 nM.
For `O=c1c(O)c(Nc2cc(-c3nn[nH]n3)cc(C3CCCCC3)c2)c1=O` [Example 28, 3-((3-cyclohexyl-5-(1H-tetrazol-5-yl)phenyl)amino)-4-hydroxycyclobut-3-ene-1,2-dione] the same measures were 12.5 nM and 6.65 nM.
The corresponding values for `O=c1c(O)c(Nc2ccc(F)c(-c3nn[nH]n3)c2)c1=O` [Example 13, 3-((4-fluoro-3-(1H-tetrazol-5-yl)phenyl)amino)-4-hydroxycyclobut-3-ene-1,2-dione] are 0.99 nM and 2.39 nM.
Take `COCCOc1ccc(CNC(=O)c2ccc(-c3cc(Nc4c(O)c(=O)c4=O)cc(-c4nn[nH]n4)c3)cc2)cc1` [Example 8, 3′-((2-hydroxy-3,4-dioxocyclobut-1-en-1-yl)amino)-N-(4-(2-methoxyethoxy)benzyl)-5′-(1H-tetrazol-5-yl)-[1,1′-biphenyl]-4-carboxamide]: the inhibitory constant (Ki) on Human GPR35a isoform amounted to 1.47 nM. The molecule also showed an EC50 on GPR35 of 0.66 nM.
For `COc1cc(-c2nn[nH]n2)cc(Nc2c(O)c(=O)c2=O)n1` [Example 17, 3-hydroxy-4-((6-methoxy-4-(1H-tetrazol-5-yl)pyridin-2-yl)amino)cyclobut-3-ene-1,2-dione] the same measures were 7.85 nM and 9.25 nM.
For `CN(C)C(=O)c1ccc(-c2cc(Nc3c(O)c(=O)c3=O)cc(-c3nn[nH]n3)c2)cc1` [Example 30, 3′-((2-hydroxy-3,4-dioxocyclobut-1-en-1-yl)amino)-N,N-dimethyl-5′-(1H-tetrazol-5-yl)-[1,1′-biphenyl]-4-carboxamide] the same measures were 5.99 nM and 2.64 nM.
In the case of `CCc1cc(Nc2c(O)c(=O)c2=O)cc(-c2nn[nH]n2)c1` [Example 10, 3-((3-ethyl-5-(1H-tetrazol-5-yl)phenyl)amino)-4-hydroxycyclobut-3-ene-1,2-dione], on Human GPR35a isoform, the inhibition constant (Ki) stood at 2.75 nM. The molecule further displayed a 50% effective concentration (EC50) on GPR35 of 2.34 nM.
For `O=c1c(O)c(Nc2cc(-c3ccc(OCCOc4cc(C(F)(F)F)cc(C(F)(F)F)c4)nc3)cc(-c3nn[nH]n3)c2)c1=O` [Example 26, 3-((3-(6-(2-(3,5-bis(trifluoromethyl)phenoxy)ethoxy)pyridin-3-yl)-5-(1H-tetrazol-5-yl)phenyl)amino)-4-hydroxycyclobut-3-ene-1,2-dione] the same measures were 0.36 nM and 1.04 nM.
For the molecule `O=c1c(O)c(Nc2cc(-c3ccccc3)cc(-c3nn[nH]n3)c2)c1=O` [Example 3, 3-((5-(1H-tetrazol-5-yl)-[1,1′-biphenyl]-3-yl)amino)-4-hydroxycyclobut-3-ene-1,2-dione], the concentration giving a half-maximal response (EC50) at GPR35 is 2.27 nM.
As for `CCOC(=O)c1cccc(-c2cc(Nc3c(O)c(=O)c3=O)cc(-c3nn[nH]n3)c2)c1` [Example 4, ethyl 3′-((2-hydroxy-3,4-dioxocyclobut-1-en-1-yl)amino)-5′-(1H-tetrazol-5-yl)-[1,1′-biphenyl]-3-carboxylate], on Human GPR35a isoform, the inhibition constant Ki amounted to 3.83 nM. Besides, the midpoint of the response on GPR35, the EC50, lay at 2.5 nM.
With `O=c1c(O)c(Nc2cc(-c3ccnnc3)cc(-c3nn[nH]n3)c2)c1=O` [Example 29, 3-hydroxy-4-((3-(pyridazin-4-yl)-5-(1H-tetrazol-5-yl)phenyl)amino)cyclobut-3-ene-1,2-dione], at Human GPR35a isoform, the Ki was 0.74 nM. The same molecule gave an EC50 at GPR35 of 1.05 nM.
For `O=c1c(O)c(Nc2ccc(Cl)c(-c3nn[nH]n3)c2)c1=O` [Example 14, 3-((4-chloro-3-(1H-tetrazol-5-yl)phenyl)amino)-4-hydroxycyclobut-3-ene-1,2-dione] the same measures were 0.6 nM and 4.9 nM.
For `COCCNC(=O)c1ccc(-c2cc(Nc3c(O)c(=O)c3=O)cc(-c3nn[nH]n3)c2)cc1` [Example 7, 3′-((2-hydroxy-3,4-dioxocyclobut-1-en-1-yl)amino)-N-(2-methoxyethyl)-5′-(1H-tetrazol-5-yl)-[1,1′-biphenyl]-4-carboxamide] the same measures were 2.77 nM and 4.2 nM.
The corresponding values for `O=c1c(O)c(Nc2cc(-c3ccc4nn(Cc5ccc(C(F)(F)F)cc5)cc4c3)cc(-c3nn[nH]n3)c2)c1=O` [Example 19, 3-((3-(1H-tetrazol-5-yl)-5-(2-(4-(trifluoromethyl)benzyl)-2H-indazol-5-yl)phenyl)amino)-4-hydroxycyclobut-3-ene-1,2-dione] are 0.36 nM and 0.08 nM.
Regarding `O=c1c(O)c(Nc2cc(-c3nn[nH]n3)cc(C3CC3)c2)c1=O` [Example 24, 3-((3-cyclopropyl-5-(1H-tetrazol-5-yl)phenyl)amino)-4-hydroxycyclobut-3-ene-1,2-dione], the inhibition constant Ki at Human GPR35a isoform came out at 15.2 nM. Further, the EC50 on GPR35 is 8.19 nM.
